Test results: patent publication US20240217951A1, “PCSK9 INHIBITORS AND METHODS OF USE THEREOF” (AstraZeneca AB, priority 2022, published 2024)

Experiments:
PCSK9 = PCSK9 (Homo sapiens, UniProt Q8NBP7, G670E/V474I); experiment: biochemical
[1] = biological target: GSK3β (Glycogen synthase kinase-3 beta) (Homo sapiens, UniProt P49841); experiment: Assay 6 - GSK3β assay (ThermoFisher Z-Lyte); assay type: biochemical; details: geometric mean; ATP Conc: 10 μM; read-out: Assay 6 (GSK3β FRET-Z-Lyte CR) GMean IC50 (μM) ATP Conc: 10
Method: Assay 6—GSK3β Assay (ThermoFisher Assay)
This assay measures the activity of the compounds at GSK3β (Glycogen synthase kinase-3 beta).
The test compounds were screened in 1% DMSO (final) in the well. For 10 point titrations, 3-fold serial dilutions are conducted from the starting concentration of 10 μM.
Bar-coded Corning, low volume NBS, black 384-well plate • 1. 2.5 μL—4× Test Compound or 100 nL 100× plus 2.4 μL kinase buffer • 2. 5 μL—2× Peptide/Kinase Mixture • 3. 2.5 μL—4×ATP Solution • 4. 30-second plate shake • 5. 60-minute Kinase Reaction incubation at room temperature • 6. 5 μL—Development Reagent Solution • 7. 30-second plate shake • 8. 60-minute Development Reaction incubation at room temperature • 9. Read on fluorescence plate reader and analyse the data
In step 2, the 2×GSK3β (GSK3 beta)/Ser/Thr (Glycogen synthase kinase-3 beta/Serine/Threonine) 09 mixture is prepared in 50 mM HEPES (4-(2-hydroxyethyl)-1-piperazineethanesulfonic acid) pH 7.5, 0.01% BRIJ-35, 10 mM MgCl2, 1 mM EGTA (egtazic acid). The final 10 μL Kinase Reaction consists of 0.22-0.92 ng GSK3β (GSK3 beta) and 2 μM Ser/Thr 09 in 50 mM HEPES pH 7.5, 0.01% BRIJ-35, 10 mM MgCl2, 1 mM EGTA.
In step 3 the ATP Solution is diluted to a 4× working concentration in Kinase Buffer (50 mM HEPES pH 7.5, 0.01% BRIJ-35, 10 mM MgCl2, 1 mM EGTA).
In Step 6 the Development Reagent is diluted 1:512 in Development Buffer (10× Novel PKC Lipid Mix: 2 mg/mL Phosphatidyl Serine, 0.2 mg/mL DAG in 20 mM HEPES, pH 7.4, 0.3% CHAPS).
SelectScreen® Kinase Profiling Service uses XLfit from IDBS. The dose response curve is curve fit to model number 205 (sigmoidal dose-response model).

[2] = biological target: T1, potassium ion channel hERG (human Ether-á-go-go-Related Gene) (Homo sapiens, UniProt Q12809); experiment: Assay 5 - hERG assay (SyncroPatch 384PE patch clamp, CHO cells); assay type: cell-based; details: geometric mean; CHO cells over-expressing hERG; read-out: Assay 5 (hERG Hu CHO IF EPh CR-Syncro) GMean IC50
T1 construct: expressed in transfected cells; host or cells: Chinese hamster ovary K1 (CHO)
Method: Assay 5—hERG Assay (Human Ether-á-go-go-Related Gene)
This assay (human Ether-á-go-go-Related Gene) measures activity of the compounds at the potassium ion channel hERG (human Ether-á-go-go-Related Gene).
Experiments were performed on the SyncroPatch 384PE high throughput patch clamp platform at room temperature and medium resistance chips with 4 patch holes per site. Chinese hamster ovary K1 (CHO) cell lines over-expressing the ion channel of choice (hERG) were used in assay-ready format and kept in liquid nitrogen or were used from live culture. Cells were either thawed and diluted in HBSS or were detached from flasks and resuspended in HBSS. HBSS comprised 140 mM NaCl, 4 mM KCl, 10 mM HEPES and 5 mM Glucose (pH7.4). The internal patch clamp solution was KF 120 mM, KCl 20 mM, HEPES 10 mM, EGTA 10 mM, and 25 PM Escin (pH 7.2). After the sealing process was complete, the external solution was exchanged for external patch clamp solution comprising NaCl 80 mM, KCl 4 mM, HEPES 10 mM, CaCl2 2 mM, MgCl2 1 mM, glucose 5 mM, and NMDG 60 mM (pH 7.4). All solutions were stored at room temperature, except Escin, which was stored at 4° C. All test compounds were dispensed in greiner-bio 384 well plates and tested in a 6 point cumulative assay (final DMSO concentration 0.33%). Only wells that passed previously agreed acceptance criteria for this platform were used in this analysis (30 MegaOhm seal resistance, Z prime >0.4 and current size >0.2 nA).

PCSK9, sequence (Q8NBP7 with tags, fused parts or gaps V474I/G670E): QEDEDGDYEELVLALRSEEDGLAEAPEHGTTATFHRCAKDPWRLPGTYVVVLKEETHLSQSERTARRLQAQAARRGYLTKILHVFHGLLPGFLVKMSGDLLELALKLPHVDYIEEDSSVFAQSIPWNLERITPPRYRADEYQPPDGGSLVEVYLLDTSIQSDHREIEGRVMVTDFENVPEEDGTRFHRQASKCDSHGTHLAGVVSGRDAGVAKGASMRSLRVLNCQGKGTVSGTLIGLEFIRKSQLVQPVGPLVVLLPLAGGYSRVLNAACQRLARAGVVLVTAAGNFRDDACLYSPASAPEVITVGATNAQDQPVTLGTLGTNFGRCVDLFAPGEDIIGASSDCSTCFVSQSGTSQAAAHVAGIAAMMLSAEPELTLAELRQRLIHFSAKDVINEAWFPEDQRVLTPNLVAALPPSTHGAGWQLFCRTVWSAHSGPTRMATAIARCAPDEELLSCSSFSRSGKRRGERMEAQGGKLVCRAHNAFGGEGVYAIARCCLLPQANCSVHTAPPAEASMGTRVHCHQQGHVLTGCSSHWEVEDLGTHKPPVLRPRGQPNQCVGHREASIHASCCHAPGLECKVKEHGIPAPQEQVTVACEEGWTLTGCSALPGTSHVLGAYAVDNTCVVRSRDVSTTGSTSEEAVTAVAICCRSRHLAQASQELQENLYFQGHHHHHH
GSK3β (Glycogen synthase kinase-3 beta), sequence (P49841 whole entry): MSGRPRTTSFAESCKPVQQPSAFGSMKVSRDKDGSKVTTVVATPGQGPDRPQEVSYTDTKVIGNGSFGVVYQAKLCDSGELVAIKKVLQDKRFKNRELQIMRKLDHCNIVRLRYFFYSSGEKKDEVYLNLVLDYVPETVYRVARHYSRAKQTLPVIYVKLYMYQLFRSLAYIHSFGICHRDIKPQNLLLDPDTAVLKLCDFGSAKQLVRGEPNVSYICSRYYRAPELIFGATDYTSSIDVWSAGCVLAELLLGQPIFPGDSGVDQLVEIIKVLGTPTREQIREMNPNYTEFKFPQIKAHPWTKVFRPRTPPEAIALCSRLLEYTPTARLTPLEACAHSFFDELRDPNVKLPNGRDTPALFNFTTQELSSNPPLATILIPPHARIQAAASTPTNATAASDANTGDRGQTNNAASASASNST
T1 sequence (Q12809 whole entry): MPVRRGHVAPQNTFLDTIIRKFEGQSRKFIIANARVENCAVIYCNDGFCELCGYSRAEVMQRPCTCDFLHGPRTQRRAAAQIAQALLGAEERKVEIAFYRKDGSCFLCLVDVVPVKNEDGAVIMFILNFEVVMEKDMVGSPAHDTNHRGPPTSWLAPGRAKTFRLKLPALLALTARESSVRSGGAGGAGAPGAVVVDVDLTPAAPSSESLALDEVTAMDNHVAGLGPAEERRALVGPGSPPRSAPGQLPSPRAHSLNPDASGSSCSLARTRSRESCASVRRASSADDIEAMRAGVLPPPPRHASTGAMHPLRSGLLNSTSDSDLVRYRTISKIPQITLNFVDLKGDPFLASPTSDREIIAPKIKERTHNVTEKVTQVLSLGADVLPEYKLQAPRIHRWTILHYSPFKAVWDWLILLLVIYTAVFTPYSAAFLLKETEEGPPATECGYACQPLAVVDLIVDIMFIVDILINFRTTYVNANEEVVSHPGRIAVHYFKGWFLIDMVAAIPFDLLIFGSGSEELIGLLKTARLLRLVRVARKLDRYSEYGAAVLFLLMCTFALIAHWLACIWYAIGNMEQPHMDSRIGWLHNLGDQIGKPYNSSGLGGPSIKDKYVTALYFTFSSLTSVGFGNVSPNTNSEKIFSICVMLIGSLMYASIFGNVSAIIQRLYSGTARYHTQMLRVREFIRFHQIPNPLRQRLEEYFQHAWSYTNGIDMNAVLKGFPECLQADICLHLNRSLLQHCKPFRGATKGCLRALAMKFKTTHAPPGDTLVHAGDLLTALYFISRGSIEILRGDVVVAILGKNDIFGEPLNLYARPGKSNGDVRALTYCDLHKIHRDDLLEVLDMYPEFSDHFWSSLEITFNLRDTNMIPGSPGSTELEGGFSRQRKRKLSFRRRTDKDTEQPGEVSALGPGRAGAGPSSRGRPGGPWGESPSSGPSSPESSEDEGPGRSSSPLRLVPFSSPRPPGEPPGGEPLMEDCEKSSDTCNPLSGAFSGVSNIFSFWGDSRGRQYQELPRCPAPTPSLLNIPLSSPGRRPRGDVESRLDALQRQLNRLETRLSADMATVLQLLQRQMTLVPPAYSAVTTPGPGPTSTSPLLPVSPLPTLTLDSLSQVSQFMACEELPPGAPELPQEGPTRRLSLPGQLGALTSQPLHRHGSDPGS

C[C@@]12C[C@]1(C)C(=O)N(c1ccc(N[C@H]3CC[C@H](Nc4cnc(OC(F)F)cn4)C3)nc1)C2=O [Example 80, (cis)-3-(6-(((1S,3S)-3-((5-(Difluoromethoxy)pyrazin-2-yl)amino)cyclopentyl)amino)pyridin-3-yl)-1,5-dimethyl-3-azabicyclo[3.1.0]hexane-2,4-dione]
IC50 (PCSK9): 1.03 µM
IC50 [1]: > 10 µM
IC50 [2]: > 40 µM

O=c1ccc(Cl)cn1-c1ccc(N[C@H]2CC[C@H](Nc3cnc(OC(F)F)cn3)C2)nc1 [Example 83, 5-Chloro-6′-(((1S,3S)-3-((5-(difluoromethoxy)pyrazin-2-yl)amino)cyclopentyl)amino)-2H-[1,3′-bipyridin]-2-one]
IC50 (PCSK9): 0.044 µM
IC50 [1]: > 10 µM
IC50 [2]: 5 µM

N#Cc1ccc(=O)n(-c2ccc(N[C@H]3CC[C@H](Nc4cnc(OC(F)F)cn4)C3)nc2)c1 [Example 89, 6′-(((1S,3S)-3-((5-(Difluoromethoxy)pyrazin-2-yl)amino)cyclopentyl)amino)-2-oxo-2H-[1,3′-bipyridine]-5-carbonitrile]
IC50 (PCSK9): 0.121 µM
IC50 [1]: > 10 µM
IC50 [2]: 6.8 µM

N#Cc1cccn(-c2ccc(N[C@H]3CC[C@H](Nc4cnc(OC(F)F)cn4)C3)nc2)c1=O [Example 90, 6′-(((1S,3S)-3-((5-(Difluoromethoxy)pyrazin-2-yl)amino)cyclopentyl)amino)-2-oxo-2H-[1,3′-bipyridine]-3-carbonitrile]
IC50 (PCSK9): 0.015 µM
IC50 [1]: > 10 µM
IC50 [2]: 11.7 µM

Cc1nc(N[C@H]2CC[C@H](Nc3ccc(-n4ccccc4=O)cn3)C2)cnc1OC(F)F [Example 91, 6′-(((1S,3S)-3-((5-(Difluoromethoxy)-6-methylpyrazin-2-yl)amino)cyclopentyl)amino)-2H-[1,3′-bipyridin]-2-one]
IC50 (PCSK9): 0.436 µM
IC50 [1]: > 10 µM
IC50 [2]: 9.6 µM

CN1CC(=O)N(c2ccc(N[C@H]3CC[C@H](Nc4cnc(OC(F)F)cn4)C3)nc2)C1=O [Example 93, 3-(6-(((1S,3S)-3-((5-(Difluoromethoxy)pyrazin-2-yl)amino)cyclopentyl)amino)pyridin-3-yl)-1-methylimidazolidine-2,4-dione]
IC50 (PCSK9): 0.087 µM
IC50 [1]: > 10 µM
IC50 [2]: > 40 µM

COc1ccc(=O)n(-c2ccc(N[C@H]3CC[C@H](Nc4cnc(OC(F)F)cn4)C3)nc2)c1 [Example 95, 6′-(((1S,3S)-3-((5-(Difluoromethoxy)pyrazin-2-yl)amino)cyclopentyl)amino)-5-methoxy-2H-[1,3′-bipyridin]-2-one]
IC50 (PCSK9): 0.114 µM
IC50 [1]: 0.115 µM
IC50 [2]: 11.1 µM

N#Cc1ccc(=O)n(-c2ccc(N[C@H]3CC[C@H](Nc4cnc(Cl)cn4)C3)nc2)c1 [Example 99, 6′-(((1S,3S)-3-((5-Chloropyrazin-2-yl)amino)cyclopentyl)amino)-2-oxo-2H-[1,3′-bipyridine]-5-carbonitrile]
IC50 (PCSK9): 0.04 µM
IC50 [1]: > 10 µM
IC50 [2]: 19.9 µM

O=c1ccc(Cl)cn1-c1ccc(N[C@H]2CC[C@H](Nc3cnc(C4CC4)cn3)C2)nc1 [Example 109, 5-Chloro-6′-(((1S,3S)-3-((5-Cyclopropylpyrazin-2-yl)amino)cyclopentyl)amino)-2H-[1,3′-bipyridin]-2-one]
IC50 (PCSK9): 0.041 µM
IC50 [1]: > 10 µM
IC50 [2]: 19.9 µM

N#Cc1ccc(=O)n(-c2ccc(N[C@H]3CC[C@H](Nc4cnc(C5CC5)cn4)C3)nc2)c1 [Example 110, 6′-(((1S,3S)-3-((5-Cyclopropylpyrazin-2-yl)amino)cyclopentyl)amino)-2-oxo-2H-[1,3′-bipyridine]-5-carbonitrile]
IC50 (PCSK9): 0.048 µM
IC50 [1]: > 10 µM
IC50 [2]: 25.3 µM

CNC(=O)c1cnc(N[C@H]2CC[C@H](Nc3ccc(-n4cccc(Cl)c4=O)cn3)C2)cn1 [Example 149, 5-(((1S,3S)-3-((3-Chloro-2-oxo-2H-[1,3′-bipyridin]-6′-yl)amino)cyclopentyl)amino)-N-methylpyrazine-2-carboxamide]
IC50 (PCSK9): 3.96 µM
IC50 [1]: > 10 µM
IC50 [2]: > 40.1 µM

CSc1cnc(N[C@H]2CC[C@H](Nc3ccc(-n4ccccc4=O)cn3)C2)cn1 [Example 162, 6′-(((1S,3S)-3-((5-(Methylthio)pyrazin-2-yl)amino)cyclopentyl)amino)-2H-[1,3′-bipyridin]-2-one]
IC50 (PCSK9): 0.042 µM
IC50 [1]: > 10 µM
IC50 [2]: > 40.1 µM

CCSc1cnc(N[C@H]2CC[C@H](Nc3ccc(-n4ccccc4=O)cn3)C2)cn1 [Example 163, 6′-(((1S,3S)-3-((5-(Ethylthio)pyrazin-2-yl)amino)cyclopentyl)amino)-2H-[1,3′-bipyridin]-2-one]
IC50 (PCSK9): 0.14 µM
IC50 [1]: > 10 µM
IC50 [2]: 30.7 µM

COC(=O)CSc1cnc(N[C@H]2CC[C@H](Nc3ccc(-n4ccccc4=O)cn3)C2)cn1 [Example 164, Methyl 2-((5-(((1S,3S)-3-((2-oxo-2H-[1,3′-bipyridin]-6′-yl)amino)cyclopentyl)amino)pyrazin-2-yl)thio)acetate]
IC50 (PCSK9): 0.451 µM
IC50 [1]: > 10 µM
IC50 [2]: > 40.1 µM

Cc1cnc(N[C@H]2CC[C@H](Nc3ccc(-n4cccc(-c5c[nH]nn5)c4=O)cn3)C2)cn1 [Example 205, 6′-(((1S,3S)-3-((5-Methylpyrazin-2-yl)amino)cyclopentyl)amino)-3-(1H-1,2,3-triazol-4-yl)-2H-[1,3′-bipyridin]-2-one]
IC50 (PCSK9): 0.007 µM
IC50 [1]: > 10 µM
IC50 [2]: > 40.1 µM

Cc1cnc(N[C@H]2CC[C@H](Nc3ccc(-n4cc(-c5cnn(C)c5)ccc4=O)cn3)C2)cn1 [Example 206, 5-(1-Methyl-1H-pyrazol-4-yl)-6′-(((1S,3S)-3-((5-methylpyrazin-2-yl)amino)cyclopentyl)amino)-2H-[1,3′-bipyridin]-2-one]
IC50 (PCSK9): 0.022 µM
IC50 [1]: > 10 µM
IC50 [2]: > 40.1 µM

Cc1cnc(N[C@H]2CC[C@H](Nc3ccc(-n4nccc(C)c4=O)cn3)C2)cn1 [Example 227, 4-Methyl-2-(6-(((1S,3S)-3-((5-methylpyrazin-2-yl)amino)cyclopentyl)amino)pyridin-3-yl)pyridazin-3 (2H)-one]
IC50 (PCSK9): 0.012 µM
IC50 [1]: > 10 µM
IC50 [2]: > 40.1 µM

Cc1cnc(N[C@H]2CC[C@H](Nc3ccc(-n4nc(Cl)ccc4=O)cn3)C2)cn1 [Example 233, 6-Chloro-2-(6-(((1S,3S)-3-((5-methylpyrazin-2-yl)amino)cyclopentyl)amino)pyridin-3-yl)pyridazin-3 (2H)-one]
IC50 (PCSK9): 0.024 µM
IC50 [1]: > 10 µM
IC50 [2]: > 40.1 µM

O=c1[nH]ccnc1N[C@H]1CC[C@H](Nc2ccc(-n3ccccc3=O)cn2)C1 [Example 252, 6′-(((1S,3S)-3-((3-Oxo-3,4-dihydropyrazin-2-yl)amino)cyclopentyl)amino)-2H-[1,3′-bipyridin]-2-one]
IC50 (PCSK9): 2.58 µM
IC50 [1]: > 10 µM
IC50 [2]: > 40.1 µM

Cc1cnc(N[C@H]2CC[C@H](Nc3ccc(-n4ccccc4=O)cn3)C2)c(=O)[nH]1 [Example 253, 6′-(((1S,3S)-3-((5-Methyl-3-oxo-3,4-dihydropyrazin-2-yl)amino)cyclopentyl)amino)-2H-[1,3′-bipyridin]-2-one]
IC50 (PCSK9): 0.307 µM
IC50 [1]: > 10 µM
IC50 [2]: > 40.1 µM

Cc1cnc(N[C@H]2CC[C@H](Nc3ccc(N4C(=O)CCc5ccccc54)cn3)C2)cn1 [Example 274, 1-(6-(((1S,3S)-3-((5-Methylpyrazin-2-yl)amino)cyclopentyl)amino)pyridin-3-yl)-3,4-dihydroquinolin-2 (1H)-one]
IC50 (PCSK9): 0.0081 µM
IC50 [1]: > 10 µM
IC50 [2]: 17.1 µM
